Earlier results as cited in US8097457B2, “Liquid crystalline substrates for culturing cells” (Wisconsin Alumni Research Foundation, priority 2005, dated 2012).

Test system: live cells
Settings: contacted with live cells for short periods of time

For `CCCCCc1ccc(-c2ccc(C#N)cc2)cc1` [5CB, 4′-pentyl-4-cyanobiphenyl], the “toxicity to live cells” value is given as “cause cell death”.
